Experimental data published in patent US20250221953A1 (The University of Chicago, priority 2022, published 2025).
Where two headings read alike, the source gives them in different places.

Key:
B16F10 tumor = assay: Mouse tumor model, B16F10; type: in vivo; conditions: B16F10 tumor-bearing C57BL/6 mice on enriched diet vs control diet
Method: For C57BL/6 mice and TCR-a KO mice tumor model, mice were anesthetized with isoflurane, shaved the injection site, and then injected subcutaneously in the abdominal flank with 1×10^5 B16F10, MC38, or LLC1 cells, or in the mammary gland with 2×10^5 E0771 cells. C57BL/6 nude mice were injected subcutaneously in the abdominal flank with 1×10^5B16F10 cells. […] Tumors were measured the tumors using a caliper every 2-3 days. Tumor volumes were calculated using the following formula: length×width×[(length×width)^0.5]×π/6. Mice were euthanized at humane endpoints or day 11-15 for tissue collection.
The mice were treated once a day for 5 consecutive days per week for 2 weeks. Tumors were measured the tumors using a caliper every 2-3 days. Tumor volumes were calculated using the following formula: length×width×[(length×width)^0.5]×π/6. Mice were euthanized at humane endpoints.
For anti-PD-1 treatment mouse model, 6-8 weeks old C57BL/6 mice were anesthetized with isoflurane, shaved the injection site, and then injected subcutaneously in the abdominal flank with 1×10^5 B16F10 for tumor development. […] In day 3, 6, 9, 12, and 15, 250 μg anti-PD-1 (BioXCell) or IgG control (BioXCell) was injected intraperitoneally per mouse. Tumors were measured the tumors using a caliper every 2-3 days. Tumor volumes were calculated using the following formula: length×width×[(length×width)^0.5]×π/6. […]

[1] = tested on: mouse primary CD8^+ T cells; assay: In vitro function of activated mouse primary CD8+ T cells (cytokines, Ki-67, apoptosis, p-CREB); type: cell-based; conditions: for effect of inhibitor/modulator on TVA-enhanced activation of CD8+ T cells (IL-2, TNF-α, IFN-γ): added synchronized with 20 μM TVA for 24 hours, SCH-202676 200 nM, H-89 200 nM, 666-15 100 nM
Method: For experiments with live/dead criteria, cells were first stained with Fixable Viability Dyes (FVD) (Thermo Fisher Scientific) according to the manufacturer's instructions. Subsequent surface marker staining was performed in Flow Cytometry Staining Buffer (Thermo Fisher Scientific). Intracellular staining for flow panels containing nuclear proteins was performed using the eBioscience FoxP3/Transcription Factor Staining Buffer Set (Thermo Fisher Scientific) according to the manufacturer's instructions. For intracellular staining of cytoplasmic proteins, the Fixation/Permeabilization Solution Kit (BD Biosciences) was used according to the manufacturer's instructions. […] The cell pellets were washed again with FACS buffer, centrifuged at 300×g for 5 minutes, and incubated with antibodies in FACS buffer for 45 minutes-1 hour at room temperature. […] Treatment with sulfosuccinimidyl oleate (SSO) was performed by incubating cells with 100 μM SSO for 24 hours.

Mouse CD8^+ T cell = assay: Second screen: IL-2 level of mouse CD8+ T cells
Jurkat T cells = type: cell-based, human; conditions: IL-2 production level in treated group compared to control group, 48 hours treatment, then anti-CD3/anti-CD28 12 hours
Mouse T cell = assay: Second screen: IL-2 level of murine primary T cells; type: cell-based
Text: Two preliminary screens were designed and performed.

Mouse CD4^+ T cell = assay: Second screen: IL-2 level of mouse CD4+ T cells
[2] = tested on: mouse primary CD8^+ T cells; assay: 13C1-TVA metabolic flux analysis by GC-MS; type: cell-based; conditions: 100 μM SSO, 24 hours
Method: Samples were kept at room temperature after centrifugation to form two distinct phases. 650 μL of the bottom dichloromethane fraction was transferred into a new glass tube and dried with nitrogen gas to obtain a lipid fraction pellet. […] FAME cleanup was applied if analyzing animal tissues (FAME Cleanup: a Florisil column was pre-conditioned with 3 mL of hexane, added methyl ester, and eluted twice with 1 mL isohexane-diethyl ether (95:5 v/v), with drying down in between elutions). Otherwise, samples were dried down under nitrogen and re-suspended in 50 μL of hexane to load onto gas chromatography (GC) mass spectrometry (MS). […] Metabolite levels and mass isotopomer distributions of derivatized fragments were analyzed with an in-house MATLAB script, which integrated the metabolite fragment ions and corrected for natural isotope abundances.

[3] = tested on: B cell acute lymphoblastic leukemia (B-ALL); conditions: Kantarjian et al., 2017; cited from earlier work
[4] = tested on: mouse melanoma B16 cells with CD8+ T cells; assay: CD8+ T cell mediated killing of B16 cells in vitro; type: cell-based
[5] = tested on: murine melanoma B16 cells; assay: Oral gavage in syngeneic mice inoculated with B16 cells; type: in vivo, mouse

| Molecule | Relative changed percentage (%) (Jurkat T cells) | also measured |
| --- | --- | --- |
| CCCCCC/C=C\CCCCCCCCCC(=O)O [CVA, cis-Vaccenic acid, reference compound] | – | body weights of mice (B16F10 tumor): did not alter body weights |
| Cl.Cl.O=S(=O)(NCCNC/C=C/c1ccc(Br)cc1)c1cccc2cnccc12 [Compound H89, H 89 Dihydrochloride, reference compound] | – | effect of inhibitor/modulator on TVA-enhanced activation of CD8+ T cells (IL-2, TNF-α, IFN-γ) [1]: similarly abolishes TVA-enhanced activation of CD8^+ T cells |
| OC[C@H]1OC(O)[C@H](O)[C@@H](O)[C@H]1O (stereo partly drawn) [D(+)-GALACTOSE ANHYDROUS] | 35.84 | Mouse CD8^+ T cell IL-2 level changes after treatment (Mouse CD8^+ T cell): 130.3%; Mouse T cell IL-2 level changes after treatment (Mouse T cell): 130.1%; Mouse CD4^+ T cell IL-2 level changes after treatment (Mouse CD4^+ T cell): 110.4% |
| Nc1nc2nc[nH]c2c(=O)[nH]1 [GUANINE] | 15.14 | Mouse CD8^+ T cell IL-2 level changes after treatment (Mouse CD8^+ T cell): 150.8%; Mouse T cell IL-2 level changes after treatment (Mouse T cell): 148.6%; Mouse CD4^+ T cell IL-2 level changes after treatment (Mouse CD4^+ T cell): 110.4% |
| Br.CN=c1nc(-c2ccccc2)n(-c2ccccc2)s1 [SCH 202676 hydrobromide, reference compound] | – | effect of inhibitor/modulator on TVA-enhanced activation of CD8+ T cells (IL-2, TNF-α, IFN-γ) [1]: abolishes TVA-enhanced activation of CD8^+ T cells |
| CCCCCCCC/C=C\CCCCCCCC(=O)ON1C(=O)CC(S(=O)(=O)O)C1=O (stereo not shown) [SSO, sulfosuccinimidyl oleate, reference compound] | – | effect on import of 13C-TVA into CD8+ T cells [2]: drastically reduced import of ^13C-TVA; effect of SSO on TVA-dependent CD8+ T cell activation ([1]; 100 μM SSO, TNF-α, IFN-γ): does not affect TVA-dependent CD8^+ T cell activation |
| Cc1cn([C@H]2C[C@H](O)[C@@H](CO)O2)c(=O)[nH]c1=O [THYMIDINE] | 39.63 | Mouse CD8^+ T cell IL-2 level changes after treatment (Mouse CD8^+ T cell): 128.9%; Mouse T cell IL-2 level changes after treatment (Mouse T cell): 145.6%; Mouse CD4^+ T cell IL-2 level changes after treatment (Mouse CD4^+ T cell): 135.8% |
| CC(=O)O [acetate, reference compound] | – | enhanced CD8+ T cell activation by pre-treatment with 20 μM TVA (TVA first) ([1]; TVA 12 hours, then 20 mM acetate 12 hours): cannot be reversed by 20 mM acetate; CD8+ T cell activation (TNF-α, IFN-γ levels) ([1]; increasing concentrations of acetate up to 20 mM): attenuate CD8^+ T cell activation |
| Nc1ccc(C(=O)O)cc1 [p-Aminobenzoic Acid] | – | Mouse CD8^+ T cell IL-2 level changes after treatment (Mouse CD8^+ T cell): 145.2%; Mouse T cell IL-2 level changes after treatment (Mouse T cell): 160.3%; Mouse CD4^+ T cell IL-2 level changes after treatment (Mouse CD4^+ T cell): 140.5% |
| Blinatumomab: bi-specific T-cell engager (BiTE) targeting CD19 antigen on B cells and CD3 on T cells | – | response rate in relapsed disease [3]: < 50% |
| C-PEPTIDE FRAGMENT 3-33, HUMAN/C-peptide [#203] | – | CD8+ T cells mediated killing of mouse melanoma B16 cells [4]: enhances CD8+ T cells mediated killing of mouse melanoma B16 cells; killing and CD8 T cell function compared with TVA [4]: better than cells treated with TVA; anti-tumor immunity [5]: increased anti-tumor immunity in a dose dependent manner |
| Chondroitin sulfate sodium | −11.46 | – |
| Chromium picolinate | −4.067 | – |
| Collagen type II | 8.555 | – |
| Copper Gluconate | 4.0672 | – |
| D-(+)-MALTOSE MONOHYDRATE | −4.914 | – |
| D-Glycerate 2,3-diphosphate sodium salt | 47.74 | Mouse CD8^+ T cell IL-2 level changes after treatment (Mouse CD8^+ T cell): 121.4%; Mouse T cell IL-2 level changes after treatment (Mouse T cell): 106.2%; Mouse CD4^+ T cell IL-2 level changes after treatment (Mouse CD4^+ T cell): 97.9% |
| D-Pantothenic Acid, hemicalcium salt | – | Relative changed percentage (%) (Jurkat T cells; hemicalcium salt): 31.9171%; Relative changed percentage (%) (Jurkat T cells; listed as D-PANTOTHENIC ACID HEMICALCIUM, hemicalcium salt): −18.99% |
| Eicosatrienoic Acid | 15.36 | – |
| FERRITIN TYPE IV FROM HUMAN LIVER | 9.075 | – |
| GLYCOGEN | 13.75 | – |
| Gelatin | 59.8 | – |

| Molecule | Relative changed percentage (%) (Jurkat T cells) | also measured |
| --- | --- | --- |
| Hyaluronic acid sodium salt | – | Relative changed percentage (%) (Jurkat T cells; listed as HYALURONIC ACID SODIUM SALT, sodium salt): −9.738%; Relative changed percentage (%) (Jurkat T cells; sodium salt): 3.093% |
| IZING HORMONE RELEASING HORMONE HUMAN AC | −19.59 | – |
| Iron Gluconate | 3.271 | – |
| L-A-PHOSPHATIDYLCHOLINE TYPE XVI-E | 38.1 | – |
| L-A-PHOSPHATIDYLETHANOLAMINE TYPE I | 32.24 | – |
| L-a-Phosphatidylcholine | −37.16 | – |
| LECYSTOKININ FRAGMENT 26-33 AMIDE NON SULFA | 4.556 | – |
| LEPTIN | 27.09 | – |
| MANGANESE SULFATE MONOHYDRATE [MANGANESE SULFATE MONOHYDRATE,] | −14.23 | – |
| Magnesium citrate | 3.782 | – |
| PECTIN | −4.914 | – |
| PROINSULIN C-PEPTIDE (55-89) [PROINSULIN C-PEPTIDE (55-89)/c-peptide] | 17.8836 | – |
| SULFUR/sulfide | 24.14 | – |
| Silicic acid | −1.03 | – |
| Sphingomyelin | 95.24 | – |
| THYROCALCITONIN SALMON/calcitonin | 11.37 | – |
| Tricalcium phosphate hydrate | 51.49 | – |
| VASOACTIVE INTESTINAL PEPTIDE | 1.0212 | – |
| XANTHOPHYLL FROM MARIGOLD | 7.531 | – |
| ZINC SULFATE HEPTAHYDRATE | 1.046 | – |
| Zinc Picolinate | 5.492 | – |
| androsterone [AN[…],/androsterone] | 15.91 | – |
